We go through five molecules from patent US11408886B2, “Method of screening for novel therapeutic targets to develop therapeutic agents for colon cancer and prognostic biomarkers for colon cancer treatment screened using the same” (KOREA INSTITUTE OF SCIENCE AND TECHNOLOGY, priority 2018, dated 2022).

One experiment concerns colon cancer cells. As to the kind of experiment: Protein expression level changes after treatment with FAK inhibitors (in-solution digestion, protein identification, expression ratios, FIG. 14). The format is cell-based, human. On the set-up: dose or concentration left out as unconfirmed. Particulars: 2 hours (FIG. 14). As for the experimental part: A human colon cancer cell line, HCT-116, was cultured using an RPMI-1640 medium containing 10% (v/v) heat-inactivated FBS and 1% (v/v) penicillin/streptomycin in a 60 mm plastic culture plate (Corning Life Science, Acton, Mass., USA) until its cell density reached 2×10^6 cells/cm^2. The culture was performed in a humidified incubator of 5% CO2 at 37° C. The cells were starved for 24 hours and washed with serum-free medium. FGF signaling was amplified by adding 10 ng/mL of EGF, IGF, PMA, and PDGF, followed by further incubation for 2 hours. Thereafter, the cells were harvested and collected by centrifugation at a speed of 300 g for 5 minutes. Cell membranes were disrupted using a sonicator, and centrifuged at a speed of 13,000 g for 30 minutes to collect lysed intracellular proteins. Further, to compare the amounts of expressed FAK-binding proteins by using defactinib (VS-6063) and PF-573228, which are FAK inhibitors, independently or simultaneously, normal intestinal epidermal cells and colon cancer cells were each treated with FAK inhibitors at three different final concentrations […], 1 mM, and 10 mM (2 hours), and then cells were collected and subjected to in-solution digestion to isolate and identify the proteins.

The test system of experiment [1] is colon cancer cell line HCT-116. As to the kind of experiment: Western blotting / immunoprecipitation of FAK and FAK-bound protein complexes after treatment with FAK signaling substances. Particulars: HCT-116, 10 ng/mL, 2 hours, compared with control group not treated with the signaling substances (FIG. 7). The format is cell-based, human. As for the experimental part: A human colon cancer cell line, HCT-116, was cultured using an RPMI-1640 medium containing 10% (v/v) heat-inactivated FBS and 1% (v/v) penicillin/streptomycin in a 60 mm plastic culture plate (Corning Life Science, Acton, Mass., USA) until its cell density reached 2×10^6 cells/cm^2. The culture was performed in a humidified incubator of 5% CO2 at 37° C. The cells were starved for 24 hours and washed with serum-free medium. FGF signaling was amplified by adding 10 ng/mL of EGF, IGF, PMA, and PDGF, followed by further incubation for 2 hours. Thereafter, the cells were harvested and collected by centrifugation at a speed of 300 g for 5 minutes. Cell membranes were disrupted using a sonicator, and centrifuged at a speed of 13,000 g for 30 minutes to collect lysed intracellular proteins. Further, to compare the amounts of expressed FAK-binding proteins by using defactinib (VS-6063) and PF-573228, which are FAK inhibitors, independently or simultaneously, normal intestinal epidermal cells and colon cancer cells were each treated with FAK inhibitors at three different final concentrations of 0.1 mM, 1 mM, and 10 mM (2 hours), and then cells were collected and subjected to in-solution digestion to isolate and identify the proteins.
The concentrations of the collected proteins were determined using a bicinchoninic acid (BCA) protein assay kit (Thermo Fisher Scientific, Waltham, Mass., USA), and the remaining samples were separated by 10% SDS-PAGE (sodium dodecyl sulfate-polyacrylamide gel electrophoresis), and transferred to a nitrocellulose membrane (Pall Corporation, Pensacola, Fla., USA) to perform Western blotting. The membrane was blocked with PBS containing 0.2% TWEEN 20 and 5% non-fat dry milk for about 2 hours, and blotting was performed using anti-phospho-FAK (1:1000) antibody and anti-β-actin (1:5000) antibody overnight. HRP-conjugated goat anti-rabbit IgG diluted 1:5000 was used as a secondary antibody, and fluorescence images were scanned using an Ez-capture MG (ATTO, NY, USA) instrument. For IP, 1.5 mg of the cell lysate was prepared and incubated overnight with 20 μL of agarose beads preblocked (at 4° C. for 2 hours) with PBS containing 1% bovine serum albumin (BSA), wherein 10 μL of FAK antibody (1:500) was immobilized to the agarose beads. To remove nonspecific binding, the beads were washed with 600 μL of PBS containing 0.1% TWEEN 20 twice, and FAK protein and proteins bound thereto were crosslinked using 2 mM of dithiobis(succinimidyl propionate) (DSP) and dithiobismaleimidoethane (DTME). The crosslinking agents were dissolved in 20 mM DMSO and diluted with PBS (pH 7.4), and then used in the reaction. Washing was performed five times using 600 μL of a 0.1% solution of PBS-Tween 20 and further performed using PBS twice. […]
(In general: In western blotting, separated proteins are transferred to a membrane and probed.)

In the case of `CS(=O)(=O)c1cccc(CNc2nc(Nc3ccc4c(c3)CCC(=O)N4)ncc2C(F)(F)F)c1` [PF-573228], in the experiment with colon cancer cells, the ELAVL1 expression level entry was “statistically significant reduction”, the SYNE1 expression level entry is “statistically significant reduction” and the ZYX expression level result is “statistically significant reduction”. Besides, the ARFGEF expression level entry with colon cancer cells (reduction only with PF-573228) is “significant reduction”. For `CCCCCCCCCCCCCC(=O)O[C@@H]1[C@@H](C)[C@@]2(O)[C@@H](C=C(CO)C[C@]3(O)C(=O)C(C)=C[C@@H]23)[C@@H]2C(C)(C)[C@]12OC(C)=O` [PMA, phorbol 12-myristate 13-acetate], the “complexes of the FAK protein and the proteins specifically bound thereto” value in experiment [1] is reported as “increased two-fold or more”. As to PDGF, the “complexes of the FAK protein and the proteins specifically bound thereto” value in experiment [1] is given as “increased two-fold or more”. Consider “hEGF: human epidermal growth factor, FAK signaling substance”, for which the “complexes of the FAK protein and the proteins specifically bound thereto” value in experiment [1] is reported as “increased two-fold or more”.

On to “hIGF-1: human insulin-like growth factor-1, FAK signaling substance”, for which, in experiment [1], the “complexes of the FAK protein and the proteins specifically bound thereto” value is on record as “increased two-fold or more”.
